Patent US20250002464A1, “NOVEL COMPOUND AND PHARMACEUTICAL COMPOSITION COMPRISING SAME” (SAPIENSBIO INC., priority 2021, published 2025)

Each compound was assayed on α-SMA (assay: α-SMA expression inhibitory ability in MRC5 cell line (Western blotting)). Details: TGF-β1 (10 ng/mL), 72 hours, relative to TGF-β1 only.
Format: cell-based
Protocol: Subsequently, the inhibitory effect on pulmonary fibrosis of the compounds according to the present invention was overall evaluated. An MRC5 cell line was treated with each compound at 10 μM, and 2 hours later, treated with TGF-β1 (10 ng/mL). After 72 hours, the cells were lysed using RIPA Buffer, and then an α-SMA protein level was measured through Western blotting. The α-SMA expression level when treating the cells with each compound and TGF-β1 compared to the α-SMA expression level when treating the cells only with TGF-β1 without the compound was calculated as the α-SMA expression inhibitory ability of the corresponding compound. The α-SMA expression inhibitory ability of each compound is summarized in Table 2 below (A: inhibitory ability≥70%, B: 50%: inhibitory ability<70%, C: inhibitory ability<50%).

Row | SMILES | inhibition at 10 µM
1 | CC(C)N1CCN(C(=O)CCN2CCCCC2)c2ccccc21 [Compound 178, 1-(4-isopropyl-3,4-dihydroquinoxaline-1(2H)-yl)-3-(piperidin-1-yl)propan-1-one] | < 50%
2 | CC(C(=O)N1CCN(CC2CC2)c2ccccc21)N1CCN(C)CC1 (centres unmarked) [Compound 166, 1-(4-(cyclopropylmethyl)-3,4-dihydroquinoxaline-1(2H)-yl)-2-(4-methylpiperazin-1-yl)propan-1-one] | < 50%
3 | CC(NC1CCN(C)C1)C(=O)N1CCN(c2ccccc2)c2ccccc21 (centres unmarked) [Compound 65, 2-((1-methylpyrrolidin-3-yl)amino)-1-(4-phenyl-3,4-dihydroquinoxaline-1(2H)-yl)propan-1-one] | < 50%
4 | CC(C(=O)N1CCN(Cc2ccc(Cl)cc2)c2ccccc21)N1CCN(C)CC1 (centres unmarked) [Compound 110, 1-(4-(4-chlorobenzyl)-3,4-dihydroquinoxaline-1(2H)-yl)-2-(4-methylpiperazin-1-yl)propan-1-one] | 50 to 70%
5 | CC(C(=O)N1CCN(c2ccccc2)c2cc(F)ccc21)N1CCCC1 (centres unmarked) [Compound 10, 1-(6-fluoro-4-phenyl-3,4-dihydroquinoxaline-1(2H)-yl)-2-(pyrrolidin-1-yl)propan-1-one] | < 50%
6 | CN1CCN(CC(=O)N2CCN(Cc3ccccn3)c3ccccc32)CC1 [Compound 118, 2-(4-methylpiperazin-1-yl)-1-(4-(pyridin-2-ylmethyl)-3,4-dihydroquinoxaline-1(2H)-yl)ethan-1-one] | < 50%
7 | CC(C(=O)N1CCN(C2CCCCC2)c2ccccc21)N1CCN(C)CC1 (centres unmarked) [Compound 192, 1-(4-cyclohexyl-3,4-dihydroquinoxaline-1(2H)-yl)-2-(4-methylpiperazin-1-yl)propan-1-one] | < 50%
8 | C[C@@H]1CCCCN1CCC(=O)N1CCN(c2ccc(F)cc2)c2cc(F)ccc21 [Compound 41, (R)-1-(6-fluoro-4-(4-fluorophenyl)-3,4-dihydroquinoxaline-1(2H)-yl)-3-(2-methylpiperidin-1-yl)propan-1-one] | < 50%
9 | CC(C(=O)N1CCN(c2ccc(F)cc2)c2cc(F)ccc21)N1CCCC[C@H]1C (stereo partly drawn) [Compound 49, 1-(6-fluoro-4-(4-fluorophenyl)-3,4-dihydroquinoxaline-1(2H)-yl)-2-((R)-2-methylpiperidin-1-yl)propan-1-one] | < 50%
10 | CN1CCN(CC(=O)N2CCN(Cc3cccc(Cl)c3)c3ccccc32)CC1 [Compound 104, 1-(4-(3-chlorobenzyl)-3,4-dihydroquinoxaline-1(2H)-yl)-2-(4-methylpiperazin-1-yl)ethan-1-one] | ≥ 70%
11 | O=C(CN1CCN(c2ccccc2)c2ccccc21)N1CCCC(O)C1 (centres unmarked) [Compound 77, 1-(3-hydroxypiperidin-1-yl)-2-(4-phenyl-3,4-dihydroquinoxaline-1(2H)-yl)ethan-1-one] | < 50%
12 | CN1CCN(CC(=O)N2CCN(c3ccccn3)c3ccccc32)CC1 [Compound 154, 2-(4-methylpiperazin-1-yl)-1-(4-(pyridin-2-yl)-3,4-dihydroquinoxaline-1(2H)-yl)ethan-1-one di L-tartrate] | ≥ 70%
13 | O=C(CCN1CCCC1)N1CCN(Cc2ccccc2)c2ccccc21 [Compound 78, 1-(4-benzyl-3,4-dihydroquinoxaline-1(2H)-yl)-3-(pyrrolidin-1-yl)propan-1-one] | 50 to 70%
14 | CC(C)CN1CCN(C(=O)CCN2CCN(C)CC2)c2ccccc21 [Compound 170, 1-(4-isobutyl-3,4-dihydroquinoxaline-1(2H)-yl)-3-(4-methylpiperazin-1-yl)propan-1-one di L-tartrate] | 50 to 70%
15 | O=C(CCN1CCCC1)N1CCN(c2ccc(Cl)cc2)c2ccccc21 [Compound 140, 1-(4-(4-chlorophenyl)-3,4-dihydroquinoxaline-1(2H)-yl)-3-(pyrrolidin-1-yl)propan-1-one] | < 50%
16 | N[C@@H](Cc1c[nH]cn1)C(=O)N1CCN(c2ccc(F)cc2)c2cc(F)ccc21 [Compound 47, (S)-2-amino-1-(6-fluoro-4-(4-fluorophenyl)-3,4-dihydroquinoxaline-1(2H)-yl)-3-(1H-imidazol-4-yl)propan-1-one] | 50 to 70%
17 | O=C(CCN1CCOCC1)N1CCN(c2ccc(F)cc2)c2cc(F)ccc21 [Compound 37, 1-(6-fluoro-4-(4-fluorophenyl)-3,4-dihydroquinoxaline-1(2H)-yl)-3-morpholinopropan-1-one] | < 50%
18 | CC(C)CN1CCN(C(=O)CN2CCCCC2)c2ccccc21 [Compound 175, 1-(4-isobutyl-3,4-dihydroquinoxaline-1(2H)-yl)-2-(piperidin-1-yl)ethan-1-one] | < 50%
19 | C[C@@H]1CCCCN1CCC(=O)N1CCN(c2ccccc2)c2cc(F)ccc21 [Compound 6, (R)-1-(6-fluoro-4-phenyl-3,4-dihydroquinoxaline-1(2H)-yl)-3-(2-methylpiperidin-1-yl)propan-1-one] | 50 to 70%

Row | SMILES | inhibition at 10 µM
20 | CC(C(=O)N1CCN(C(=O)c2ccccc2)c2ccccc21)N1CCCCC1 (centres unmarked) [Compound 200, 1-(4-benzoyl-3,4-dihydroquinoxaline-1(2H)-yl)-2-(piperidin-1-yl)propan-1-one] | < 50%
21 | O=C(CN1CCN(c2ccccc2)c2ccccc21)N1CCN(C2CC2)CC1 [Compound 76, 1-(4-cyclopropylpiperazin-1-yl)-2-(4-phenyl-3,4-dihydroquinoxaline-1(2H)-yl)ethan-1-one] | < 50%
22 | O=C(CCN1CCCCC1)N1CCN(Cc2ccccc2)c2ccccc21 [Compound 79, 1-(4-benzyl-3,4-dihydroquinoxaline-1(2H)-yl)-3-(piperidin-1-yl)propan-1-one] | < 50%
23 | CC1CCCN1CCC(=O)N1CCN(c2ccc(F)cc2)c2cc(F)ccc21 (stereo in doubt) [Compound 40, (R)-1-(6-fluoro-4-(4-fluorophenyl)-3,4-dihydroquinoxaline-1(2H)-yl)-3-(2-methylpyrrolidin-1-yl)propan-1-one] | < 50%
24 | O=C(CCN1CCCCC1)N1CCN(C2CCCCC2)c2ccccc21 [Compound 187, 1-(4-cyclohexyl-3,4-dihydroquinoxaline-1(2H)-yl)-3-(piperidin-1-yl)propan-1-one] | ≥ 70%
25 | O=C(CCN1CC[C@H](O)C1)N1CCN(c2ccc(F)cc2)c2ccccc21 [Compound 23, (S)-1-(4-(4-fluorophenyl)-3,4-dihydroquinoxaline-1(2H)-yl)-3-(3-hydroxypyrrolidin-1-yl)propan-1-one] | ≥ 70%
26 | O=C(CN1CCCCC1)N1CCN(c2ccccn2)c2ccccc21 [Compound 153, 2-(piperidin-1-yl)-1-(4-(pyridin-2-yl)-3,4-dihydroquinoxaline-1(2H)-yl)ethan-1-one] | ≥ 70%
27 | O=C(CCN1CCCCC1)N1CCN(c2ccncc2)c2ccccc21 [Compound 159, 3-(piperidin-1-yl)-1-(4-(pyridin-4-yl)-3,4-dihydroquinoxaline-1(2H)-yl)propan-1-one] | < 50%
28 | CC(C(=O)N1CCN(Cc2cccc(Cl)c2)c2ccccc21)N1CCCCC1 (centres unmarked) [Compound 100, 1-(4-(3-chlorobenzyl)-3,4-dihydroquinoxaline-1(2H)-yl)-2-(piperidin-1-yl)propan-1-one] | ≥ 70%
29 | O=C(CCN1CCCCC1)N1CCN(c2ccc(F)cc2)c2ccccc21 [Compound 16, 1-(4-(4-fluorophenyl)-3,4-dihydroquinoxaline-1(2H)-yl)-3-(piperidin-1-yl)propan-1-one] | ≥ 70%
30 | CC(C(=O)N1CCN(C(C)C)c2ccccc21)N1CCN(C)CC1 (centres unmarked) [Compound 182, 1-(4-isopropyl-3,4-dihydroquinoxaline-1(2H)-yl)-2-(4-methylpiperazin-1-yl)propan-1-one] | < 50%
31 | CN1CCN(CCC(=O)N2CCN(Cc3cccnc3)c3ccccc32)CC1 [Compound 121, 3-(4-methylpiperazin-1-yl)-1-(4-(pyridin-3-ylmethyl)-3,4-dihydroquinoxaline-1(2H)-yl)propan-1-one] | < 50%
32 | C[C@@H]1CCCN1CCC(=O)N1CCN(c2ccccc2)c2ccccc21 [Compound 57, (R)-3-(2-methylpyrrolidin-1-yl)-1-(4-phenyl-3,4-dihydroquinoxaline-1(2H)-yl)propan-1-one] | < 50%
33 | O=C(CCc1cnc[nH]1)N1CCN(c2ccc(F)cc2)c2ccccc21 [Compound 29, 1-(4-(4-fluorophenyl)-3,4-dihydroquinoxaline-1(2H)-yl)-3-(1H-imidazol-5-yl)propan-1-one] | ≥ 70%
34 | CC(C(=O)N1CCN(C(=O)c2ccccc2)c2ccccc21)N1CCN(C)CC1 (centres unmarked) [Compound 201, 1-(4-benzoyl-3,4-dihydroquinoxaline-1(2H)-yl)-2-(4-methylpiperazin-1-yl)propan-1-one] | < 50%
35 | CC(C(=O)N1CCN(c2ccccn2)c2ccccc21)N1CCCC1 (centres unmarked) [Compound 149] | < 50%
36 | CC(C(=O)N1CCN(c2ccccc2)c2ccccc21)N1CCCC1 (centres unmarked) [Compound 61, 1-(4-phenyl-3,4-dihydroquinoxaline-1(2H)-yl)-2-(pyrrolidin-1-yl)propan-1-one] | < 50%
37 | CN1CCN(CCC(=O)N2CCN(Cc3cccc(Cl)c3)c3ccccc32)CC1 [Compound 98, 1-(4-(3-chlorobenzyl)-3,4-dihydroquinoxaline-1(2H)-yl)-3-(4-methylpiperazin-1-yl)propan-1-one] | < 50%
38 | O=C(CCN1CCCCC1)N1CCN(c2ccc(Cl)cc2)c2ccccc21 [Compound 141, 1-(4-(4-chlorophenyl)-3,4-dihydroquinoxaline-1(2H)-yl)-3-(piperidin-1-yl)propan-1-one] | 50 to 70%
